Data from paper PMC9883826 (Scientific Reports, 2023).
In brackets after ≈: the same amount, converted by molar mass. Entries after “also recorded” stand apart in the source; their conditions may differ. Where a name gives a salt, the structure may show the parent alone. Read-outs that look alike come from different tables or passages of the source.

What was measured:
[1] = in vitro; settings: dog
[2] = tested on: influenza A/chicken/Egypt/N12640A/2016(H5N1); experiment: microbe, parasite or virus in culture; type: cell-based, influenza A virus
[3] = tested on: influenza A/Egypt/NRC098/2019(H1N1); experiment: microbe, parasite or virus in culture; type: cell-based, influenza A virus; settings: for IC50: Influenza A virus, H1N1, MDCK
[4] = tested on: influenza A/H5N1 virus; experiment: microbe, parasite or virus in culture; type: cell-based
[5] = tested on: influenza A/H5N1 virus; experiment: microbe, parasite or virus in culture; type: cell-based; settings: H5N1, read-out: Viral inhibition (%) Mean
[6] = tested on: HSV-2; settings: cited from earlier work
[7] = tested on: HSV-1; settings: cited from earlier work
[8] = tested on: influenza A/H1N1 virus; experiment: microbe, parasite or virus in culture; type: cell-based; settings: H1N1, read-out: Viral inhibition (%) Mean
[9] = tested on: influenza A/H5N1 virus; experiment: microbe, parasite or virus in culture; type: cell-based; remark: listed apart in the source
[10] = tested on: influenza A/H5N1 virus; experiment: microbe, parasite or virus in culture; type: cell-based; remark: listed apart in the source
[11] = tested on: MDCK cells; settings: dog
[12] = tested on: severe acute respiratory syndrome coronavirus (SARS-CoV); settings: cited from earlier work
[13] = tested on: HSV-2; settings: cited from earlier work; remark: listed apart in the source
[14] = in vivo; cited from earlier work
[15] = tested on: DENV-2 (dengue virus-2); settings: cited from earlier work
[16] = Influenza A virus, H5N1, MDCK, 72 h
[17] = Influenza A virus, H5N1, read-out: Viricidal (%) viral inhibition
[18] = Influenza A virus, H5N1, MDCK, read-out: PIC50 H5N1
[19] = Influenza A virus, H5N1, read-out: Viral adsorption (%) viral inhibition
[20] = Influenza A virus, H5N1, read-out: Viral replication (%) viral inhibition

c1ccc2c(c1)[nH]c1cnccc12 [Norharmane]
CC50 [1]: > 10000 µg/mL
anti-influenza activity against avian influenza A/H5N1 virus (in words) [2]: poor or no antiviral potential activity; also recorded: no effect
IC50 [2, 16]: > 10000 µg/mL

Cc1nccc2c1[nH]c1ccccc12 [Harmane]
Selectivity index (SI) [3]: > 2.17*10^5
IC50 ([3]; 72 h): 0.033 µg/mL
IC50 ([3]; read-out: PIC50 H1N1): 0.0182 µM
inhibition at 10 µg/mL [4, 17]: 31.8%
inhibition at 100 µg/mL [4, 17]: 41.8%
inhibition at 1000 µg/mL [4, 17]: 82.1%
inhibition at 10 µg/mL [5]: 65.5%
inhibition at 100 µg/mL [5]: 74.4%
inhibition at 1000 µg/mL [5]: 85%
CC50 [1]: 7180 µg/mL (≈ 39.4 mM)
EC50 [6]: 71.8 µg/mL (≈ 0.394 mM)
EC50 [7]: 4.90 µg/mL (≈ 0.0269 mM)
inhibition at 10 µg/mL [8]: 55.1%
inhibition at 100 µg/mL [8]: 74.4%
inhibition at 1000 µg/mL [8]: 84.6%
IC50 [2, 16]: 0.023 µg/mL
IC50 [2, 18]: 0.023 µM
inhibition at 10 µg/mL [9, 19]: 43.4%
inhibition at 100 µg/mL [9, 19]: 48.7%
inhibition at 1000 µg/mL [9, 19]: 61.4%
main stage of antiviral action: viral replication (in words) [10]: interference with the viral replication compartment
inhibition at 10 µg/mL [10, 20]: 83.3%
inhibition at 100 µg/mL [10, 20]: 97.5%
inhibition at 1000 µg/mL [10, 20]: 96.7%

NC12CC3CC(CC(C3)C1)C2 [Amantadine HCl, reference compound]
Selectivity index (SI) [3]: 74.32
IC50 ([3]; 72 h): 14.9 µg/mL
CC50 [1]: 1100 µg/mL
Selectivity index (SI) [2]: 62.71
IC50 [2, 16]: 17.6 µg/mL
CC50 [11]: 1103 µg/mL

CC[C@@H](CO)NC(=O)[C@@H]1C=C2c3cccc4[nH]cc(c34)C[C@H]2N(C)C1 [Methyl ergometrine]
CC50 [1]: 8230 µg/mL (≈ 24.2 mM)
anti-influenza activity against avian influenza A/H5N1 virus (in words) [2]: poor or no antiviral potential activity
IC50 [2, 16]: > 1000 µg/mL

COC(=O)[C@H]1[C@H]2C[C@@H]3c4[nH]c5cc(OC)ccc5c4CCN3C[C@H]2C[C@@H](OC(=O)c2cc(OC)c(OC)c(OC)c2)[C@@H]1OC [Reserpine]
anti-influenza activity against human influenza A/H1N1 virus (in words) [3]: moderate anti-influenza potential
EC50 [12]: 3.4 µM
CC50 [1]: 1400 µg/mL (≈ 2.3 mM)
Selectivity index (SI) [2]: > 33
anti-influenza activity against avian influenza A/H5N1 virus (in words) [2]: moderate anti-influenza activity
IC50 [2, 16]: 42.4 µg/mL

COc1ccc2c3c([nH]c2c1)C(C)=NCC3 [Harmaline]
Selectivity index (SI) [3]: 8482
IC50 ([3]; 72 h): 0.056 µg/mL
IC50 ([3]; read-out: PIC50 H1N1): 0.02 µM
main stage of antiviral action: viricidal (in words) [4]: direct cell-free viricidal effect
inhibition at 1 µg/mL [4, 17]: 91%
inhibition at 10 µg/mL [4, 17]: 96.7%
inhibition at 100 µg/mL [4, 17]: 98.6%
inhibition at 1 µg/mL [5]: 72.6%
inhibition at 10 µg/mL [5]: 87.7%
inhibition at 100 µg/mL [5]: 94.2%
CC50 [1]: 475 µg/mL (≈ 2.22 mM)
inhibition at 1 µg/mL [8]: 66.7%
inhibition at 10 µg/mL [8]: 77.8%
inhibition at 100 µg/mL [8]: 86.5%
Selectivity index (SI) [2]: 138
IC50 [2, 16]: 3.42 µg/mL
IC50 [2, 18]: 28.1 µM
inhibition at 1 µg/mL [9, 19]: 34%
inhibition at 10 µg/mL [9, 19]: 46.2%
inhibition at 100 µg/mL [9, 19]: 51.8%
inhibition at 1 µg/mL [10, 20]: 28.3%
inhibition at 10 µg/mL [10, 20]: 40.3%
inhibition at 100 µg/mL [10, 20]: 48.7%

CC1=NCCc2c1[nH]c1cc(O)ccc21 [Harmalol]
Selectivity index (SI) [3]: > 2.8*10^5
IC50 ([3]; 72 h): 0.035 µg/mL
IC50 ([3]; read-out: PIC50 H1N1): 0.02 µM
inhibition at 0.1 µg/mL [4, 17]: 41.5%
inhibition at 1 µg/mL [4, 17]: 50.9%
inhibition at 10 µg/mL [4, 17]: 58%
inhibition at 0.1 µg/mL [5]: 54.7%
inhibition at 1 µg/mL [5]: 73.3%
inhibition at 10 µg/mL [5]: 86.4%
CC50 [1]: > 10000 µg/mL
inhibition at 0.1 µg/mL [8]: 74.3%
inhibition at 1 µg/mL [8]: 79.6%
inhibition at 10 µg/mL [8]: 91.8%
Selectivity index (SI) [2]: > 5*10^5
IC50 [2, 16]: 0.02 µg/mL
IC50 [2, 18]: 0.021 µM
inhibition at 0.1 µg/mL [9, 19]: 60.3%
inhibition at 1 µg/mL [9, 19]: 74.5%
inhibition at 10 µg/mL [9, 19]: 82.1%
main stage of antiviral action: viral replication (in words) [10]: interference with the viral replication compartment
inhibition at 0.1 µg/mL [10, 20]: 87.5%
inhibition at 1 µg/mL [10, 20]: 96.9%
inhibition at 10 µg/mL [10, 20]: 98.7%

COc1ccc2c(c1)[nH]c1c(C)nccc12 [Harmine]
EC50 [13]: 1.47 µM
CC50 [1]: > 10000 µg/mL
anti-influenza activity against avian influenza A/H5N1 virus (in words) [2]: poor or no antiviral potential activity; also recorded: no effect; also recorded: no anti-influenza activity
IC50 [2, 16]: > 10000 µg/mL

O=C1C[C@@H]2OCC=C3CN4CC[C@]56c7ccccc7N1[C@H]5[C@H]2[C@H]3C[C@H]46 [strychnine]
high dose causing muscle contraction and convulsions that can lead to respiratory paralysis [14]: 1.5 mg/kg

COc1cc2c(cc1OC)[C@@]13CCN4CC5=CCO[C@H]6CC(=O)N2[C@H]1[C@H]6[C@H]5C[C@H]43 [Brucine]
CC50 [1]: > 10000 µg/mL
anti-influenza activity against avian influenza A/H5N1 virus (in words) [2]: poor or no antiviral potential activity
IC50 [2, 16]: > 10000 µg/mL

COc1ccc2c3ccnc(C)c3n(C)c2c1 [9 N methylharmine]
EC50 [15]: 3.2 ± 0.6 µM

CNC(=O)Oc1ccc2c(c1)[C@]1(C)CCN(C)[C@@H]1N2C [Eserine]
anti-influenza activity against human influenza A/H1N1 virus (in words) [3]: no antiviral activity
CC50 [1]: > 10000 µg/mL
anti-influenza activity against avian influenza A/H5N1 virus (in words) [2]: poor or no antiviral potential activity
IC50 [2, 16]: > 10000 µg/mL

O=C1C[C@@H]2OCC=C3CN4CC[C@]56c7ccccc7N1[C@H]5[C@H]2[C@H]3C[C@H]46 [Strychnine Sulfate, Strychnine sulfate]
Selectivity index (SI) [3]: > 1.67*10^5
IC50 ([3]; 72 h): 0.06 µg/mL
inhibition at 1 µg/mL [4, 17]: 29.4%
inhibition at 10 µg/mL [4, 17]: 37%
inhibition at 100 µg/mL [4, 17]: 49.2%
inhibition at 1 µg/mL [5]: 74.4%
inhibition at 10 µg/mL [5]: 84%
inhibition at 100 µg/mL [5]: 96.3%
CC50 [1]: > 10000 µg/mL
inhibition at 1 µg/mL [8]: 65.5%
inhibition at 10 µg/mL [8]: 71.6%
inhibition at 100 µg/mL [8]: 87.4%
IC50 [2]: 11.851 µg/mL
Selectivity index (SI) [2]: > 843
IC50 [2, 16]: 11.8 µg/mL
main stage of antiviral action: viral adsorption (in words) [9]: hindering IAV adsorption to the host cell (MDCK) receptors
inhibition at 1 µg/mL [9, 19]: 90.1%
inhibition at 10 µg/mL [9, 19]: 99.5%
inhibition at 100 µg/mL [9, 19]: 99%
inhibition at 1 µg/mL [10, 20]: 19.4%
inhibition at 10 µg/mL [10, 20]: 27.3%
inhibition at 100 µg/mL [10, 20]: 42%

CC(=O)N[C@H]1[C@H]([C@H](O)[C@H](O)CO)OC(C(=O)O)=C[C@@H]1N=C(N)N [Zanamivir, reference compound]
Selectivity index (SI) [3]: > 3.4*10^4
IC50 ([3]; 72 h): 0.291 µg/mL
CC50 [1]: > 10000 µg/mL
Selectivity index (SI) [2]: > 1.26*10^5
IC50 [2, 16]: 0.079 µg/mL
